Data on 24 molecules can be found in patent US7211576B2, “Diaminothiazoles” (Hoffmann-La Roche Inc., priority 2004, dated 2007).

Like-named read-outs stand apart in the source and are kept apart here.

One test addresses human cyclin B-CDK1 (Homo sapiens, UniProt P06493). Description: FlashPlate kinase assay, cyclin B-CDK1. It counts as biochemical. To be noted: Rb protein substrate, 1 μM ATP, 33P-ATP, 30 minutes room temperature. On the procedure:
To determine inhibition of Cdk4, Cdk2 and Cdk1 activity, kinase assays were conducted using FlashPlate™ assays (NEN™-Life Science Products). FlashPlate assays were performed using recombinant human cyclin B-CDK1, human cyclin E-CDK2 or human cyclin D1-CDK4 complexes. GST-cyclinE (GST-cycE), CDK2, GST-cyclinB (GST-cycB), CDK1, GST-CDK4 and cyclin D1 (cycD1) cDNA clones in baculovirus vectors were provided by Dr. W. Harper at the Baylor College of Medicine, Houston, Tex. Proteins were co-expressed in High Five™ insect cells and the complex was purified on glutathione Sepharose resin (Pharmacia, Piscataway, N.J.) as previously described (Harper, J. W. et al. Cell 1993, 75, 805–816). A 6×-Histidine tagged truncated form of retinoblastoma (Rb) protein (amino acid 386–928) was used as the substrate for the cycD1-CDK4, cycB-CDK1 and the cycE-CDK2 assays (the expression plasmid was provided by Dr. Veronica Sullivan, Department of Molecular Virology, Roche Research Centre, Welwyn Garden City, United Kingdom). The Rb protein is a natural substrate for phosphorylation by CDK4, CDK2 and CDK1 (see Herwig and Strauss Eur. J. Biochem. Vol. 246 (1997) pp. 581–601 and the references cited therein).
(§1) The expression of the 62Kd protein was under the control of an IPTG inducible promoter in an M15 E. coli strain. Cells were lysed by sonication and purification was carried out by binding lysates at pH 8.0 to a Ni-chelated agarose column pretreated with 1 mM imidazole. The resin was then washed several times with incrementally decreasing pH buffers to pH 6.0, and eluted with 500 mM imidazole. Eluted protein was dialysed against 20 mM HEPES pH 7.5, 30% glycerol, 200 mM NaCl, and 1 mM DTT. Purified Rb fusion protein stocks were quantitated for protein concentration, aliquoted, and stored at −70° C.
(§2) For all three kinase assays reported herein, 96-well FlashPlates were coated with Rb protein at 10 μg/ml, using 100 μl per well. Plates were incubated at 4° C. overnight or at room temperature for 3 hours on a shaker. To control for nonspecific phosphorylation, one row of wells was coated with 100 μl/well coating buffer (20 mM HEPES, 0.2 M NaCl). Plates were then washed twice with wash buffer (0.01% Tween 20 in phosphate-buffered saline). Compounds to be tested (“test compounds”) were added to the wells at 5× final concentration. Reactions were initiated by immediate addition of 40 μl reaction mix (25 mM HEPES, 20 mM MgCl2, 0.002% Tween 20, 2 mM DTT, 1 μM ATP, 4 nM ^33P-ATP) and a sufficient amount of enzyme to give counts that were at least 10-fold above background. Plates were incubated at room temperature on a shaker for 30 minutes. Plates were washed four times with the wash buffer, sealed, and counted on the TopCount scintillation counter (Packard Instrument Co., Downers Grove, Ill.]. The percent inhibition of Rb phosphorylation, which is a measure of the inhibition of CDK activity, was determined according to the following formula:
[formula] where “test compound” refers to the average counts per minute of the test duplicates, “nonspecific” refers to the average counts per minute when no CyclinD/Cdk4, etc., was added, and “total” refers to the average counts per minute when no compound was added. The IC50 value is the concentration of test compound that reduces by 50% the protein-kinase induced incorporation of the radiolabel under the test conditions described.

A further test concerns the target human cyclin D1-CDK4 (Homo sapiens, UniProt P11802). As to the kind of experiment: FlashPlate kinase assay, cyclin D1-CDK4. Type of test: biochemical. The procedure:
To determine inhibition of Cdk4, Cdk2 and Cdk1 activity, kinase assays were conducted using FlashPlate™ assays (NEN™-Life Science Products). FlashPlate assays were performed using recombinant human cyclin B-CDK1, human cyclin E-CDK2 or human cyclin D1-CDK4 complexes. GST-cyclinE (GST-cycE), CDK2, GST-cyclinB (GST-cycB), CDK1, GST-CDK4 and cyclin D1 (cycD1) cDNA clones in baculovirus vectors were provided by Dr. W. Harper at the Baylor College of Medicine, Houston, Tex.
as §1, §2
[formula] where “test compound” refers to the average counts per minute of the test duplicates, “nonspecific” refers to the average counts per minute when no CyclinD/Cdk4, etc., was added, and “total” refers to the average counts per minute when no compound was added.

Where [1] appears, read: Rb protein substrate, 1 μM ATP, 33P-ATP, 30 minutes room temperature, read-out: CDK4 IC50.

Sequence of human cyclin D1-CDK4 (P11802 whole entry): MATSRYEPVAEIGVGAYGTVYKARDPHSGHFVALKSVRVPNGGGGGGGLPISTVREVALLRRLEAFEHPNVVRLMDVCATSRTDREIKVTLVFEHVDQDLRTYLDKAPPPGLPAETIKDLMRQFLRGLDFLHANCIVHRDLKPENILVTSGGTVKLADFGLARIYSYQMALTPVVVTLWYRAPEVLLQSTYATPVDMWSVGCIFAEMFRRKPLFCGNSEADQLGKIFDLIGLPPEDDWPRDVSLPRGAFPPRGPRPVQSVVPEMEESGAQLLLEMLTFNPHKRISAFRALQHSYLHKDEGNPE
Sequence of human cyclin D1-CDK4 (P24385 whole entry partner): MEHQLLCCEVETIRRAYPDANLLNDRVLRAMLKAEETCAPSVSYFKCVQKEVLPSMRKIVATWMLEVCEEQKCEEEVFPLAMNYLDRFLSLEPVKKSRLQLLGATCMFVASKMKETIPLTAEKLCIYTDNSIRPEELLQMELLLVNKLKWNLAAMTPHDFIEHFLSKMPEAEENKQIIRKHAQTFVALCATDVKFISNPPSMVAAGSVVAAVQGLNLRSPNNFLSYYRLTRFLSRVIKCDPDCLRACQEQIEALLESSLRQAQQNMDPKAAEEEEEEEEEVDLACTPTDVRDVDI
Sequence of human cyclin B-CDK1 (P06493 whole entry): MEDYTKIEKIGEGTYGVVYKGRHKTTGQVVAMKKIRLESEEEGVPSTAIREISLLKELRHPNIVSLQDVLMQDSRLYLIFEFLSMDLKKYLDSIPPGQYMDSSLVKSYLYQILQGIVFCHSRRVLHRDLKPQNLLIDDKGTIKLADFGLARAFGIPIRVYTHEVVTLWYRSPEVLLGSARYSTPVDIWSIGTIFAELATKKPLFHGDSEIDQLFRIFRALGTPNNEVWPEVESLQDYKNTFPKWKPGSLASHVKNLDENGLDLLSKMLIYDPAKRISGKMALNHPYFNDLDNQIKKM
Sequence of human cyclin B-CDK1 (P14635 whole entry partner): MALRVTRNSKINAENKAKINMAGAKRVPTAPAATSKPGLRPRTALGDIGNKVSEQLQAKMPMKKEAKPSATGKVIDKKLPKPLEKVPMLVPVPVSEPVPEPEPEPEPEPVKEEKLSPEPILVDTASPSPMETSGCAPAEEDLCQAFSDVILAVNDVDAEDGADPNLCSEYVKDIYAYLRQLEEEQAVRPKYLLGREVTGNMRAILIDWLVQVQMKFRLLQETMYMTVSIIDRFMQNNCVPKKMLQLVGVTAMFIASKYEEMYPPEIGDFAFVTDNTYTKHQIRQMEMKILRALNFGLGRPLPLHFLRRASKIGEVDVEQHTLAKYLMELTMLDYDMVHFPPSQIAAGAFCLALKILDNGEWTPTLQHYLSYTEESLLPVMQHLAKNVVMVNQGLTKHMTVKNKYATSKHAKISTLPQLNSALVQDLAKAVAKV

Usually IC50 stands for the point on the concentration scale where inhibition reaches its midpoint. On to `Nc1nc(Nc2ccc(N3CCC(N4CCCCC4)CC3)cc2)sc1C(=O)c1ccc([N+](=O)[O-])cc1` [Example 56, [4-Amino-2-(4-[1,4′]bipiperidinyl-1′-yl-phenylamino)-thiazol-5-yl]-(4-nitro-phenyl)-methanone], for which the IC50 against human cyclin B-CDK1 came to 4770 nM; on human cyclin D1-CDK4 (setting [1]), 160 nM.

In the case of `CN(C)C1CCN(c2ccc(Nc3nc(N)c(C(=O)c4ccc(C#N)cc4)s3)cc2)CC1` [Example 47, 4-{4-Amino-2-[4-(4-dimethylamino-piperidin-1-yl)-phenylamino]-thiazole-5-carbonyl}-benzonitrile], on human cyclin D1-CDK4 (setting [1]), the IC50 was 186 nM.

As for `CN(C)C1CCN(c2ccc(Nc3nc(N)c(C(=O)c4ccc([N+](=O)[O-])cc4)s3)cc2)CC1` [Example 48, {4-Amino-2-[4-(4-dimethylamino-piperidin-1-yl)-phenylamino]-thiazol-5-yl}-(4-nitro-phenyl)-methanone], on human cyclin D1-CDK4 (setting [1]), the IC50 was 74 nM.

On to `Nc1nc(Nc2ccc(N3CCC(N4CCCC(O)C4)CC3)cc2)sc1C(=O)c1ccc(C(=O)O)cc1` (centres unmarked) [Example 79, 4-{4-Amino-2-[4-(3-hydroxy-[1,4′]bipiperidinyl-1′-yl)-phenylamino]-thiazole-5-carbonyl}-benzoic acid], for which, on human cyclin D1-CDK4 (setting [1]), the IC50 worked out at 400 nM.

In the case of `Nc1nc(Nc2ccc(N3CCC(N4CCCC4)CC3)cc2)sc1C(=O)c1ccc(F)cc1` [Example 70, {4-Amino-2-[4-(4-pyrrolidin-1-yl-piperidin-1-yl)-phenylamino]-thiazol-5-yl}-(4-fluoro-phenyl)-methanone], on human cyclin D1-CDK4 (setting [1]), the IC50 is 186 nM.

Consider `NC(=O)c1cc(C(=O)c2sc(Nc3ccc(N4CCC(N5CCCC5)CC4)cc3)nc2N)ccc1O` [Example 94, 5-{4-Amino-2-[4-(4-pyrrolidin-1-yl-piperidin-1-yl)-phenylamino]-thiazole-5-carbonyl}-2-hydroxy-benzamide], for which the IC50 on human cyclin D1-CDK4 (setting [1]) amounted to 390 nM.

Consider `Nc1nc(Nc2ccc(N3CCC(N4CCCC4)CC3)cc2)sc1C(=O)c1ccc([N+](=O)[O-])cc1` [Example 53, {4-Amino-2-[4-(4-pyrrolidin-1-yl-piperidin-1-yl)-phenylamino]-thiazol-5-yl}-(4-nitro-phenyl)-methanone], for which the IC50 on human cyclin D1-CDK4 (setting [1]) is 96 nM.

On to `N#Cc1ccc(C(=O)c2sc(Nc3ccc(N4CCC(N5CCCCC5)CC4)cc3)nc2N)cc1` [Example 55, 4-[4-Amino-2-(4-[1,4′]bipiperidinyl-1′-yl-phenylamino)-thiazole-5-carbonyl]-benzonitrile], for which the IC50 at human cyclin D1-CDK4 (setting [1]) was 370 nM.

Take `N#Cc1ccc(C(=O)c2sc(Nc3ccc(N4CCC(N5CCCC(O)C5)CC4)cc3)nc2N)cc1` (centres unmarked) [Example 51, 4-{4-Amino-2-[4-(3-hydroxy-[1,4′]bipiperidinyl-1′-yl)-phenylamino]-thiazole-5-carbonyl}-benzonitrile]: the IC50 at human cyclin D1-CDK4 (setting [1]) was 230 nM.

On to `COc1ccc(C(=O)c2sc(Nc3ccc(N4CCC(N5CCOCC5)CC4)cc3)nc2N)cc1F` [Example 100, {4-Amino-2-[4-(4-morpholin-4-yl-piperidin-1-yl)-phenylamino]-thiazol-5-yl}-(3-fluoro-4-methoxy-phenyl)-methanone], for which the IC50 on human cyclin B-CDK1 was found to be 4170 nM; at human cyclin D1-CDK4 it was 90 nM.

For the molecule `Nc1nc(Nc2ccc(N3CCC(N4CCCC(O)C4)CC3)cc2)sc1C(=O)c1ccc(F)cc1` (centres unmarked) [Example 77, {4-Amino-2-[4-(3-hydroxy-[1,4′]bipiperidinyl-1′-yl)-phenylamino]-thiazol-5-yl}-(4-fluoro-phenyl)-methanone], at human cyclin D1-CDK4 (setting [1]), the IC50 is 111 nM.

As for `Nc1nc(Nc2ccc(N3CCC(N4CCOCC4)CC3)cc2)sc1C(=O)c1ccc2c(c1)OCCO2` [Example 98, {4-Amino-2-[4-(4-morpholin-4-yl-piperidin-1-yl)-phenylamino]-thiazol-5-yl}-(2,3-dihydro-benzo[1,4]dioxin-6-yl)-methanone], the IC50 turned out to be 2700 nM against human cyclin B-CDK1 and 39 nM on human cyclin D1-CDK4 (setting [1]).

With `CN(C)C1CCN(c2ccc(Nc3nc(N)c(C(=O)c4ccc(F)cc4)s3)cc2)CC1` [Example 86, {4-Amino-2-[4-(4-dimethylamino-piperidin-1-yl)-phenylamino]-thiazol-5-yl}-(4-fluoro-phenyl)-methanone], the IC50 on human cyclin D1-CDK4 (setting [1]) amounted to 114 nM.

With `Nc1nc(Nc2ccc(N3CCC(N4CCCC4)CC3)cc2)sc1C(=O)c1cc(F)cc(F)c1` [Example 66, {4-Amino-2-[4-(4-pyrrolidin-1-yl-piperidin-1-yl)-phenylamino]-thiazol-5-yl}-(3,5-difluoro-phenyl)-methanone], the IC50 came out at 4020 nM at human cyclin B-CDK1 and 76 nM at human cyclin D1-CDK4 (setting [1]).

As for `Nc1nc(Nc2ccc(N3CCC(N4CCCCC4)CC3)cc2)sc1C(=O)c1ccc(F)cc1` [Example 61, [4-Amino-2-(4-[1,4′]bipiperidinyl-1′-yl-phenylamino)-thiazol-5-yl]-(4-fluoro-phenyl)-methanone], the IC50 at human cyclin D1-CDK4 (setting [1]) turned out to be 71 nM.

As for `N#Cc1ccc(C(=O)c2sc(Nc3ccc(N4CCC(N5CCCC5)CC4)cc3)nc2N)cc1` [Example 54, 4-{4-Amino-2-[4-(4-pyrrolidin-1-yl-piperidin-1-yl)-phenylamino]-thiazole-5-carbonyl}-benzonitrile], the concentration for half-maximal inhibition (IC50) on human cyclin D1-CDK4 (setting [1]) was 212 nM.

Regarding `Nc1nc(Nc2ccc(N3CCC(N4CCCC4)CC3)cc2)sc1C(=O)c1ccc(Cl)cc1` [Example 67, {4-Amino-2-[4-(4-pyrrolidin-1-yl-piperidin-1-yl)-phenylamino]-thiazol-5-yl}-(4-chloro-phenyl)-methanone], the IC50 at human cyclin D1-CDK4 (setting [1]) worked out at 170 nM.

Turning to `CN(C)C1CCN(c2ccc(Nc3nc(N)c(C(=O)c4ccc(O)c(C(N)=O)c4)s3)cc2)CC1` [Example 93, 5-{4-Amino-2-[4-(4-dimethylamino-piperidin-1-yl)-phenylamino]-thiazole-5-carbonyl}-2-hydroxy-benzamide], the IC50 on human cyclin D1-CDK4 (setting [1]) came to 677 nM.

As for `Nc1nc(Nc2ccc(N3CCC(N4CCCC(O)C4)CC3)cc2)sc1C(=O)c1ccc(Cl)cc1` (centres unmarked) [Example 74, {4-Amino-2-[4-(3-hydroxy-[1,4′]bipiperidinyl-1′-yl)-phenylamino]-thiazol-5-yl}-(4-chloro-phenyl)-methanone], at human cyclin D1-CDK4 (setting [1]), the IC50 came to 62 nM.

In the case of `Cc1cccc(C(=O)c2sc(Nc3ccc(N4CCC(N5CCCC5)CC4)cc3)nc2N)c1` [Example 109, {4-Amino-2-[4-(4-pyrrolidin-1-yl-piperidin-1-yl)-phenylamino]-thiazol-5-yl}-tolyl-methanone], the IC50 on human cyclin B-CDK1 stood at 770 nM; on human cyclin D1-CDK4 (setting [1]), 14 nM.

Take `Nc1nc(Nc2ccc(N3CCC(N4CCCCC4)CC3)cc2)sc1C(=O)c1ccc(C(=O)O)cc1` [Example 63]: on human cyclin D1-CDK4 (setting [1]), the half-inhibitory concentration (IC50) turned out to be 320 nM.

On to `Nc1nc(Nc2ccc(N3CCC(N4CCCCC4)CC3)cc2)sc1C(=O)c1ccc(Cl)cc1` [Example 58, [4-Amino-2-(4-[1,4′]bipiperidinyl-1′-yl-phenylamino)-thiazol-5-yl]-(4-chloro-phenyl)-methanone], for which the IC50 on human cyclin D1-CDK4 (setting [1]) was found to be 45 nM.

With `Nc1nc(Nc2ccc(N3CCC(N4CCCC(O)C4)CC3)cc2)sc1C(=O)c1ccc([N+](=O)[O-])cc1` (centres unmarked) [Example 52, {4-Amino-2-[4-(3-hydroxy-[1,4′]bipiperidinyl-1′-yl)-phenylamino]-thiazol-5-yl}-(4-nitro-phenyl)-methanone], at human cyclin D1-CDK4 (setting [1]), the IC50 was 71 nM.

For `CN(C)C1CCN(c2ccc(Nc3nc(N)c(C(=O)c4ccc(Cl)cc4)s3)cc2)CC1` [Example 83, {4-Amino-2-[4-(4-dimethylamino-piperidin-1-yl)-phenylamino]-thiazol-5-yl}-(4-chloro-phenyl)-methanone], the IC50 at human cyclin D1-CDK4 (setting [1]) came to 132 nM.
